Results as given in ChEMBL document CHEMBL4765275, “Discovery of novel tertiary amide derivatives as NEDDylation pathway activators to inhibit the tumor progression in vitro and in vivo” (Eur J Med Chem, 2020).

system: PC-3; assay: Antiproliferative activity against human PC-3 cells measured after 48 hrs by MTT assay; format: functional, cell-based; conditions: PC-3, 48 h

| SMILES | IC50 [µM] |
| --- | --- |
| COc1ccc(CN(C(=O)COc2cc(OC)c(OC)c(OC)c2)c2cc(OC)c(OC)c(OC)c2)cc1 | > 80 |
| COc1cc(N(Cc2ccc(C(C)(C)C)cc2)C(=O)Cc2cccs2)cc(OC)c1OC | 13.8 |
| O=c1[nH]cc(F)c(=O)[nH]1 [FLUOROURACIL] | 17.3 |
| COc1ccc(CN(C(=O)Cc2cccs2)c2ccc(OC)cc2)cc1 | > 80 |
| COc1ccc(CN(C(=O)COc2cccc(Cl)c2)c2cc(OC)c(OC)c(OC)c2)cc1 | 30.5 |
| COc1ccc(CN(C(=O)Cc2ccc(F)cc2)c2cc(OC)c(OC)c(OC)c2)cc1 | 2.38 |
| COc1ccc(CN(C(=O)COc2ccccc2)c2cc(OC)c(OC)c(OC)c2)cc1 | 19.7 |
| COc1ccc(CC(=O)N(Cc2ccc(OC)cc2)c2cc(OC)c(OC)c(OC)c2)cc1 | 1.49 |
| COc1cc(N(Cc2cccc(C)c2)C(=O)Cc2cccs2)cc(OC)c1OC | 26.9 |
| COc1ccc(CN(C(=O)Cc2cccs2)c2ccccc2)cc1 | > 80 |
| COc1ccc(CN(C(=O)Cc2cccs2)c2ccc(OC)c(OC)c2)cc1 | > 80 |
| COc1ccc(CN(C(=O)Cc2ccccc2)c2cc(OC)c(OC)c(OC)c2)cc1 | 0.85 |
| COc1cc(N(Cc2ccc(Br)cc2)C(=O)Cc2cccs2)cc(OC)c1OC | 7.68 |
| COc1ccc(CN(C(=O)COc2ccc(OC)cc2)c2cc(OC)c(OC)c(OC)c2)cc1 | 66.4 |
| COc1cc(N(Cc2cccc(F)c2)C(=O)Cc2cccs2)cc(OC)c1OC | 21.4 |
| COc1cc(N(Cc2cccc(Cl)c2)C(=O)Cc2cccs2)cc(OC)c1OC | 77.9 |
| COc1ccc(CN(C(=O)C(c2ccccc2)c2ccccc2)c2cc(OC)c(OC)c(OC)c2)cc1 | > 80 |
| COc1ccc(CN(C(=O)Cc2cccs2)c2cc(OC)c(OC)c(OC)c2)cc1N | 1.65 |
| COc1ccc(CN(C(=O)Cc2ccc(C)cc2C)c2cc(OC)c(OC)c(OC)c2)cc1 | 52.8 |
| COc1cc(N(Cc2ccc(Cl)cc2)C(=O)Cc2cccs2)cc(OC)c1OC | 19.3 |
| COc1ccc(CN(C(=O)Cc2cccc(OC)c2)c2cc(OC)c(OC)c(OC)c2)cc1 | 3.04 |
| COc1cc(N(Cc2ccc(F)cc2)C(=O)Cc2cccs2)cc(OC)c1OC | 23.1 |
| COc1cc(N(Cc2ccc(C)cc2)C(=O)Cc2cccs2)cc(OC)c1OC | 16.9 |
| COc1ccc(CN(C(=O)Cc2cccs2)c2cc(Cl)c(Cl)cc2Cl)cc1 | > 80 |
| COc1cc(N(Cc2ccccc2)C(=O)Cc2cccs2)cc(OC)c1OC | 33.9 |

system: MGC-803; assay: Antiproliferative activity against human MGC-803 cells measured after 48 hrs by MTT assay; format: functional, cell-based; conditions: MGC-803, 48 h

| SMILES | IC50 [µM] |
| --- | --- |
| COc1ccc(CN(C(=O)COc2cc(OC)c(OC)c(OC)c2)c2cc(OC)c(OC)c(OC)c2)cc1 | 31.2 |
| COc1cc(N(Cc2ccc(C(C)(C)C)cc2)C(=O)Cc2cccs2)cc(OC)c1OC | 22.8 |
| COc1ccc(CN(C(=O)Cc2cccs2)c2ccc(OC)cc2)cc1 | > 80 |
| COc1ccc(CN(C(=O)COc2cccc(Cl)c2)c2cc(OC)c(OC)c(OC)c2)cc1 | 68.7 |
| COc1ccc(CN(C(=O)Cc2ccc(F)cc2)c2cc(OC)c(OC)c(OC)c2)cc1 | 1.81 |
| COc1ccc(CN(C(=O)COc2ccccc2)c2cc(OC)c(OC)c(OC)c2)cc1 | 22.7 |
| COc1ccc(CC(=O)N(Cc2ccc(OC)cc2)c2cc(OC)c(OC)c(OC)c2)cc1 | 4.37 |
| COc1cc(N(Cc2cccc(C)c2)C(=O)Cc2cccs2)cc(OC)c1OC | 19.7 |
| COc1ccc(CN(C(=O)Cc2cccs2)c2ccccc2)cc1 | > 80 |
| COc1ccc(CN(C(=O)Cc2cccs2)c2ccc(OC)c(OC)c2)cc1 | > 80 |
| COc1ccc(CN(C(=O)Cc2ccccc2)c2cc(OC)c(OC)c(OC)c2)cc1 | 6.82 |
| COc1cc(N(Cc2ccc(Br)cc2)C(=O)Cc2cccs2)cc(OC)c1OC | 5.32 |
| COc1ccc(CN(C(=O)COc2ccc(OC)cc2)c2cc(OC)c(OC)c(OC)c2)cc1 | 6.27 |
| COc1cc(N(Cc2cccc(F)c2)C(=O)Cc2cccs2)cc(OC)c1OC | 13.1 |
| COc1cc(N(Cc2cccc(Cl)c2)C(=O)Cc2cccs2)cc(OC)c1OC | 37 |
| COc1ccc(CN(C(=O)C(c2ccccc2)c2ccccc2)c2cc(OC)c(OC)c(OC)c2)cc1 | > 80 |
| COc1ccc(CN(C(=O)Cc2cccs2)c2cc(OC)c(OC)c(OC)c2)cc1N | 0.1 |
| COc1ccc(CN(C(=O)Cc2ccc(C)cc2C)c2cc(OC)c(OC)c(OC)c2)cc1 | 28.7 |
| COc1cc(N(Cc2ccc(Cl)cc2)C(=O)Cc2cccs2)cc(OC)c1OC | 14.3 |
| COc1ccc(CN(C(=O)Cc2cccc(OC)c2)c2cc(OC)c(OC)c(OC)c2)cc1 | 1.06 |
| COc1cc(N(Cc2ccc(F)cc2)C(=O)Cc2cccs2)cc(OC)c1OC | 32.6 |
| COc1cc(N(Cc2ccc(C)cc2)C(=O)Cc2cccs2)cc(OC)c1OC | 0.84 |
| COc1ccc(CN(C(=O)Cc2cccs2)c2cc(Cl)c(Cl)cc2Cl)cc1 | > 80 |
| COc1cc(N(Cc2ccccc2)C(=O)Cc2cccs2)cc(OC)c1OC | 22 |

system: MCF7; assay: Antiproliferative activity against human MCF7 cells measured after 48 hrs by MTT assay; format: functional, cell-based; conditions: MCF7, 48 h

| SMILES | IC50 [µM] |
| --- | --- |
| COc1ccc(CN(C(=O)COc2cc(OC)c(OC)c(OC)c2)c2cc(OC)c(OC)c(OC)c2)cc1 | 40.7 |
| COc1cc(N(Cc2ccc(C(C)(C)C)cc2)C(=O)Cc2cccs2)cc(OC)c1OC | 19.4 |
| COc1ccc(CN(C(=O)Cc2cccs2)c2ccc(OC)cc2)cc1 | > 80 |
| COc1ccc(CN(C(=O)COc2cccc(Cl)c2)c2cc(OC)c(OC)c(OC)c2)cc1 | 55.2 |
| COc1ccc(CN(C(=O)Cc2ccc(F)cc2)c2cc(OC)c(OC)c(OC)c2)cc1 | 2.52 |
| COc1ccc(CN(C(=O)COc2ccccc2)c2cc(OC)c(OC)c(OC)c2)cc1 | 64.1 |
| COc1ccc(CC(=O)N(Cc2ccc(OC)cc2)c2cc(OC)c(OC)c(OC)c2)cc1 | 0.18 |
| COc1cc(N(Cc2cccc(C)c2)C(=O)Cc2cccs2)cc(OC)c1OC | 42.6 |
| COc1ccc(CN(C(=O)Cc2cccs2)c2ccccc2)cc1 | > 80 |
| COc1ccc(CN(C(=O)Cc2cccs2)c2ccc(OC)c(OC)c2)cc1 | > 80 |
| COc1ccc(CN(C(=O)Cc2ccccc2)c2cc(OC)c(OC)c(OC)c2)cc1 | 2.68 |
| COc1ccc(CN(C(=O)CSc2ccccn2)c2cc(OC)c(OC)c(OC)c2)cc1 | 16.1 |
| COc1ccc(CN(C(=O)CSc2nc3ccccc3o2)c2cc(OC)c(OC)c(OC)c2)cc1 | 6.68 |
| COc1ccc(CN(C(=O)CSc2nncs2)c2cc(OC)c(OC)c(OC)c2)cc1 | 19.4 |
| COc1cc(N(Cc2ccc(Br)cc2)C(=O)Cc2cccs2)cc(OC)c1OC | 6.43 |
| COc1ccc(CN(C(=O)COc2ccc(OC)cc2)c2cc(OC)c(OC)c(OC)c2)cc1 | 46.4 |
| COc1ccc(CN(C(=O)CSc2nnnn2C)c2cc(OC)c(OC)c(OC)c2)cc1 | 14.4 |
| COc1cc(N(Cc2cccc(F)c2)C(=O)Cc2cccs2)cc(OC)c1OC | 27.3 |
| COc1cc(N(Cc2cccc(Cl)c2)C(=O)Cc2cccs2)cc(OC)c1OC | 42.4 |
| COc1ccc(CN(C(=O)C(c2ccccc2)c2ccccc2)c2cc(OC)c(OC)c(OC)c2)cc1 | > 80 |
| COc1ccc(CN(C(=O)Cc2cccs2)c2cc(OC)c(OC)c(OC)c2)cc1N | 2.48 |
| COc1ccc(CN(C(=O)Cc2ccc(C)cc2C)c2cc(OC)c(OC)c(OC)c2)cc1 | 69.4 |
| COc1cc(N(Cc2ccc(Cl)cc2)C(=O)Cc2cccs2)cc(OC)c1OC | 8.78 |
| COc1ccc(CN(C(=O)Cc2cccc(OC)c2)c2cc(OC)c(OC)c(OC)c2)cc1 | 1.33 |
| COc1cc(N(Cc2ccc(F)cc2)C(=O)Cc2cccs2)cc(OC)c1OC | 50.9 |
| COc1cc(N(Cc2ccc(C)cc2)C(=O)Cc2cccs2)cc(OC)c1OC | 1.56 |
| COc1ccc(CN(C(=O)Cc2cccs2)c2cc(Cl)c(Cl)cc2Cl)cc1 | > 80 |
| COc1cc(N(Cc2ccccc2)C(=O)Cc2cccs2)cc(OC)c1OC | 48.8 |
